Source: patent US20220089575A1, “FARNESOID X RECEPTOR AGONISTS AND USES THEREOF” (Metacrine, Inc., priority 2017, published 2022)
pEC50: −log10 of the molar value.

target: T1, hFXR (Homo sapiens, UniProt Q96RI1); test: In Vitro FXR Assay (TK): TK-ECRE-luc reporter in transfected CV-1 cells; format: cell-based; conditions: 18 hrs, luminescence, maximum efficacy of <25% of the Fexarmine control classified as '+'
T1 construct: expressed in transfected cells; host or cells: CV-1 cells
T1 sequence (Q96RI1 1-486): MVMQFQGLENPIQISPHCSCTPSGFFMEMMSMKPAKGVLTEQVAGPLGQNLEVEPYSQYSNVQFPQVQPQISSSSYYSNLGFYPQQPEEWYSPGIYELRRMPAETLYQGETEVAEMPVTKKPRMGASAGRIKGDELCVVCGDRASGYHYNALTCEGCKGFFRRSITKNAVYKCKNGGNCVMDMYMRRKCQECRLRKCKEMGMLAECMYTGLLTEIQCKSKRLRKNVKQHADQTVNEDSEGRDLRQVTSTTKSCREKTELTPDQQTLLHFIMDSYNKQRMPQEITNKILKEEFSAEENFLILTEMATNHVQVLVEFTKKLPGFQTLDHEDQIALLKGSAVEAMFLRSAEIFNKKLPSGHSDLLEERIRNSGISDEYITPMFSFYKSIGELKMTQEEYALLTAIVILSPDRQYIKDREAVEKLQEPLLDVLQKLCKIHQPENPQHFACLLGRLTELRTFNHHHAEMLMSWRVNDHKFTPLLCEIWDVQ
T1 sequence (P19793 1-462 partner): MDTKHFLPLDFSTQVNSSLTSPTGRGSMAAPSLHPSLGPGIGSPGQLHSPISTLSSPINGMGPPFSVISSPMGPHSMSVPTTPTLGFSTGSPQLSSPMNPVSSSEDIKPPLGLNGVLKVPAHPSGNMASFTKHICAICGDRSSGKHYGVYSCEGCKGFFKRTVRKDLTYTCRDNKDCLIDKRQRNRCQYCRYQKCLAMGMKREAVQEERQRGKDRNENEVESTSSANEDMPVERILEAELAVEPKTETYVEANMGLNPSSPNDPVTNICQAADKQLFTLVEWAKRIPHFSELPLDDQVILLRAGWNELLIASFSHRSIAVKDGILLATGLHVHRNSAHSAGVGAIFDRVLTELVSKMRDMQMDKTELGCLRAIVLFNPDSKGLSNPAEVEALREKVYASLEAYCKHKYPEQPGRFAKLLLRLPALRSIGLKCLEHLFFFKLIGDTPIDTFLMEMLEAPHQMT
In short: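 CV-1 cells transiently co-transfected with hFXR, hRXR, TK-ECRE-luc and pCMX-YFP plasmids in charcoal-stripped serum medium. Serially diluted compounds added, cells incubated 18 h at 37° C, then lysed and luminescence read.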

Question: With `CCC(O)C(C)NC(=O)O[C@H]1CC[C@H](C(=O)N(C[C@H]2CC[C@H](c3ccc(OC)c(C)n3)CC2)c2cc(-c3coc(C4CC4)n3)ccn2)CC1` (stereo partly drawn) [Compound 6.88, trans-4-((4-(2-Cyclopropyloxazol-4-yl)pyridin-2-yl)((trans-4-(5-methoxy-6-methylpyridin-2-yl)cyclohexyl)methyl)carbamoyl)cyclohexyl (3-hydroxypentan-2-yl)carbamate] as the compound, how does the pEC50 read?
Answer: ≥ 6.60

Question: `COc1ccc([C@H]2CC[C@H](CN(c3cc(-c4coc(C5CC5)n4)ccn3)C(=O)[C@H]3CC[C@H](OC(=O)NCC(O)C(C)C)CC3)CC2)nc1C` (stereo partly drawn) [Compound 6.89, trans-4-((4-(2-Cyclopropyloxazol-4-yl)pyridin-2-yl)((trans-4-(5-methoxy-6-methylpyridin-2-yl)cyclohexyl)methyl)carbamoyl)cyclohexyl (2-hydroxy-3-methylbutyl)carbamate] was tested. Which pEC50 did it give?
Answer: ≥ 6.60

Question: How did the pEC50 turn out when `COc1ccc([C@H]2CC[C@H](CN(c3cc(-c4coc(C5CC5)n4)ccn3)C(=O)[C@H]3CC[C@H](OC(=O)NC(C)(C)CO)CC3)CC2)nc1C` [Compound 6.90, trans-4-((4-(2-Cyclopropyloxazol-4-yl)pyridin-2-yl)((trans-4-(5-methoxy-6-methylpyridin-2-yl)cyclohexyl)methyl)carbamoyl)cyclohexyl (1-hydroxy-2-methylpropan-2-yl)carbamate] was run?
Answer: ≥ 6.60

Question: `COc1ccc([C@H]2CC[C@H](CN(c3cc(-c4coc(C(C)C)n4)ccn3)C(=O)[C@H]3CC[C@H](OC(=O)NCC(C)(C)O)CC3)CC2)nc1C` [Compound 6.91, trans-4-((4-(2-Isopropyloxazol-4-yl)pyridin-2-yl)((trans-4-(5-methoxy-6-methylpyridin-2-yl)cyclohexyl)methyl)carbamoyl)cyclohexyl (2-hydroxy-2-methylpropyl)carbamate] was tested. Which pEC50 did it give?
Answer: ≥ 6.60

Question: With `COc1ccc([C@H]2CC[C@H](CN(c3cc(-c4cnn(C(C)C)c4)ccn3)C(=O)[C@H]3CC[C@H](OC(=O)NCC(C)(C)O)CC3)CC2)nc1C` [Compound 6.92, trans-4-((4-(1-Isopropyl-1H-pyrazol-4-yl)pyridin-2-yl)((trans-4-(5-methoxy-6-methylpyridin-2-yl)cyclohexyl)methyl)carbamoyl)cyclohexyl (2-hydroxy-2-methylpropyl)carbamate] as the compound, how does the pEC50 read?
Answer: ≥ 6.60

Question: How did the pEC50 turn out when `COc1ccc([C@H]2CC[C@H](CN(c3cc(-c4coc(C5CC5)n4)ccn3)C(=O)[C@H]3CC[C@H](OC(=O)N[C@@H](C)CO)CC3)CC2)nc1C` [Compound 6.93, trans-4-((4-(2-Cyclopropyloxazol-4-yl)pyridin-2-yl)((trans-4-(5-methoxy-6-methylpyridin-2-yl)cyclohexyl)methyl)carbamoyl)cyclohexyl ((S)-1-hydroxypropan-2-yl)carbamate] was run?
Answer: ≥ 6.60

Question: How did the pEC50 turn out when `COc1ccc([C@H]2CC[C@H](CN(c3cc(-c4coc(C5CC5)n4)ccn3)C(=O)[C@H]3CC[C@H](OC(=O)N[C@H](C)CO)CC3)CC2)nc1C` [Compound 6.94, trans-4-((4-(2-Cyclopropyloxazol-4-yl)pyridin-2-yl)((trans-4-(5-methoxy-6-methylpyridin-2-yl)cyclohexyl)methyl)carbamoyl)cyclohexyl ((R)-1-hydroxypropan-2-yl)carbamate] was run?
Answer: ≥ 6.60

Question: With `COc1ccc([C@H]2CC[C@H](CN(c3cc(-c4coc(C5CC5)n4)ccn3)C(=O)[C@H]3CC[C@H](OC(=O)NC[C@@H](C)O)CC3)CC2)nc1C` [Compound 6.95, trans-4-((4-(2-Cyclopropyloxazol-4-yl)pyridin-2-yl)((trans-4-(5-methoxy-6-methylpyridin-2-yl)cyclohexyl)methyl)carbamoyl)cyclohexyl ((R)-2-hydroxypropyl)carbamate] as the compound, how does the pEC50 read?
Answer: ≥ 6.60

Question: How did the pEC50 turn out when `COc1ccc([C@H]2CC[C@H](CN(c3cc(-c4coc(C5CC5)n4)ccn3)C(=O)[C@H]3CC[C@H](OC(=O)NC[C@H](C)O)CC3)CC2)nc1C` [Compound 6.96, trans-4-((4-(2-Cyclopropyloxazol-4-yl)pyridin-2-yl)((trans-4-(5-methoxy-6-methylpyridin-2-yl)cyclohexyl)methyl)carbamoyl)cyclohexyl ((S)-2-hydroxypropyl)carbamate] was run?
Answer: ≥ 6.60

Question: `COc1ccc([C@H]2CC[C@H](CN(c3cc(-c4coc(C5CC5)n4)ccn3)C(=O)[C@H]3CC[C@H](OC(=O)N4CC(O)C4)CC3)CC2)nc1C` [Compound 7, trans-4-((4-(2-Cyclopropyloxazol-4-yl)pyridine-2-yl)((trans-4-(5-methoxy-6-methylpyridin-2-yl)cyclohexyl)methyl)carbamoyl)cyclohexyl 3-hydroxyazetidine-1-carboxylate] was tested. Which pEC50 did it give?
Answer: ≥ 6.60

Question: How did the pEC50 turn out when `CN(C)c1ccc([C@H]2CC[C@H](CN(c3cccc(-c4cnc(C5CC5)s4)c3)C(=O)[C@H]3CC[C@H](OC(=O)N4CC(O)C4)CC3)CC2)cn1` [Compound 7.01, trans-4-((3-(2-Cyclopropylthiazol-5-yl)phenyl)((trans-4-(6-(dimethylamino)pyridin-3-yl)cyclohexyl)methyl)carbamoyl)cyclohexyl 3-hydroxyazetidine-1-carboxylate] was run?
Answer: ≥ 6.60

Question: `COc1ccc([C@H]2CC[C@H](CN(c3cccc(-c4cnc(C5CC5)s4)c3)C(=O)[C@H]3CC[C@H](OC(=O)N4CC(O)C4)CC3)CC2)cc1C` [Compound 7.02, trans-4-((3-(2-Cyclopropylthiazol-5-yl)phenyl)((trans-4-(4-methoxy-3-methylphenyl)cyclohexyl)methyl)carbamoyl)cyclohexyl 3-hydroxyazetidine-1-carboxylate] was tested. Which pEC50 did it give?
Answer: ≥ 6.60

Question: How did the pEC50 turn out when `COc1ccc([C@H]2CC[C@H](CN(c3cc(-c4cnc(C5CC5)s4)ccn3)C(=O)[C@H]3CC[C@H](OC(=O)N4CC(O)C4)CC3)CC2)cc1C` [Compound 7.03, trans-4-((4-(2-Cyclopropylthiazol-5-yl)pyridin-2-yl)((trans-4-(4-methoxy-3-methylphenyl)cyclohexyl)methyl)carbamoyl)cyclohexyl 3-hydroxyazetidine-1-carboxylate] was run?
Answer: ≥ 6.60

Question: With `COc1ccc([C@H]2CC[C@H](CN(c3cc(-c4cnc(C(C)C)s4)ccn3)C(=O)[C@H]3CC[C@H](OC(=O)N4CC(O)C4)CC3)CC2)cc1C` [Compound 7.04, trans-4-((4-(2-Isopropylthiazol-5-yl)pyridin-2-yl)((trans-4-(4-methoxy-3-methylphenyl)cyclohexyl)methyl)carbamoyl)cyclohexyl 3-hydroxyazetidine-1-carboxylate] as the compound, how does the pEC50 read?
Answer: ≥ 6.60

Question: `COc1ccc([C@H]2CC[C@H](CN(c3cccc(-c4cnc(C(C)C)s4)c3)C(=O)[C@H]3CC[C@H](OC(=O)N4CC(O)C4)CC3)CC2)nc1C` [Compound 7.05, trans-4-((3-(2-Isopropylthiazol-5-yl)phenyl)((trans-4-(5-methoxy-6-methylpyridin-2-yl)cyclohexyl)methyl)carbamoyl)cyclohexyl 3-hydroxyazetidine-1-carboxylate] was tested. Which pEC50 did it give?
Answer: ≥ 6.60

Question: How did the pEC50 turn out when `COc1ccc([C@H]2CC[C@H](CN(c3cc(-c4cnc(C5CC5)s4)ccn3)C(=O)[C@H]3CC[C@H](OC(=O)N4CC(O)C4)CC3)CC2)nc1C` [Compound 7.06, trans-4-((4-(2-Cyclopropylthiazol-5-yl)pyridin-2-yl)((trans-4-(5-methoxy-6-methylpyridin-2-yl)cyclohexyl)methyl)carbamoyl)cyclohexyl 3-hydroxyazetidine-1-carboxylate] was run?
Answer: ≥ 6.60

Question: `COc1ccc([C@H]2CC[C@H](CN(c3cc(-c4cnc(C(C)C)s4)ccn3)C(=O)[C@H]3CC[C@H](OC(=O)N4CC(O)C4)CC3)CC2)nc1C` [Compound 7.07, trans-4-((4-(2-Isopropylthiazol-5-yl)pyridin-2-yl)((trans-4-(5-methoxy-6-methylpyridin-2-yl)cyclohexyl)methyl)carbamoyl)cyclohexyl 3-hydroxyazetidine-1-carboxylate] was tested. Which pEC50 did it give?
Answer: ≥ 6.60

Question: With `COc1ccc([C@H]2CC[C@H](CN(c3cc(-c4cnc(C5CC5)s4)ccn3)C(=O)[C@H]3CC[C@H](OC(=O)N4CC(O)C4)CC3)CC2)cc1C#N` [Compound 7.08, trans-4-(((trans-4-(3-Cyano-4-methoxyphenyl)cyclohexyl)methyl)(4-(2-cyclopropylthiazol-5-yl)pyridin-2-yl)carbamoyl)cyclohexyl 3-hydroxyazetidine-1-carboxylate] as the compound, how does the pEC50 read?
Answer: ≥ 6.60

Question: How did the pEC50 turn out when `COc1ccc([C@H]2CC[C@H](CN(c3cccc(-c4cnc(C5CC5)s4)c3)C(=O)[C@H]3CC[C@H](OC(=O)N4CC(O)C4)CC3)CC2)nc1C#N` [Compound 7.09, trans-4-(((trans-4-(6-Cyano-5-methoxypyridin-2-yl)cyclohexyl)methyl)(3-(2-cyclopropylthiazol-5-yl)phenyl)carbamoyl)cyclohexyl 3-hydroxyazetidine-1-carboxylate] was run?
Answer: ≥ 6.60
